The source made the active and inactive calls.
Legend:
Genome polyprotein = Genome polyprotein (dengue virus type 2, UniProt P29990); experiment: flavivirus cap methylation enzyme inhibition – biochemical, confirmation dose response, primary screen (AID 588689); assay type: functional
H9c2 = experiment: cells; assay type: functional, cell-based; settings: Rattus norvegicus, H9c2, Myocardium
HEK293 = experiment: EBV LMP1 TES2 canonical NF-kB signalling blockers – cell-based, HEK293, luciferase, cherry-pick, dose response (AID 588343); assay type: functional; settings: Homo sapiens
Cytochrome P450 3A4 = Cytochrome P450 3A4 (Homo sapiens, UniProt P08684);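 also: CYP3A4 tested as one member of a cytochrome P450 panel screen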
Cytochrome P450 3A4, sequence (P08684 whole entry): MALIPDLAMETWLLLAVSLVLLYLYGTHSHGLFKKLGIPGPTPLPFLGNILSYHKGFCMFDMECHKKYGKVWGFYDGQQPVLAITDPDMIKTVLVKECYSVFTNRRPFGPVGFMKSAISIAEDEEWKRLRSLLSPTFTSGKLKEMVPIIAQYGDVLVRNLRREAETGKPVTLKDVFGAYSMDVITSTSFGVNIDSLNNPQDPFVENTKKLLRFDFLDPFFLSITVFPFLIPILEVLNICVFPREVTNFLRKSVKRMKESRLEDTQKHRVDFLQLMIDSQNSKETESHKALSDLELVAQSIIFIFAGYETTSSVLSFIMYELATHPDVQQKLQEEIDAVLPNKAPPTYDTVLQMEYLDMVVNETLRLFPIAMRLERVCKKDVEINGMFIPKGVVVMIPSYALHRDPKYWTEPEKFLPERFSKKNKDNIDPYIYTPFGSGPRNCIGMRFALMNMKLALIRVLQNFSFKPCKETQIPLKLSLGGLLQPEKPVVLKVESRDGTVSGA

Cytochrome P450 2C9 = Cytochrome P450 2C9 (Homo sapiens, UniProt P11712)
Cytochrome P450 2C9, sequence (P11712 whole entry): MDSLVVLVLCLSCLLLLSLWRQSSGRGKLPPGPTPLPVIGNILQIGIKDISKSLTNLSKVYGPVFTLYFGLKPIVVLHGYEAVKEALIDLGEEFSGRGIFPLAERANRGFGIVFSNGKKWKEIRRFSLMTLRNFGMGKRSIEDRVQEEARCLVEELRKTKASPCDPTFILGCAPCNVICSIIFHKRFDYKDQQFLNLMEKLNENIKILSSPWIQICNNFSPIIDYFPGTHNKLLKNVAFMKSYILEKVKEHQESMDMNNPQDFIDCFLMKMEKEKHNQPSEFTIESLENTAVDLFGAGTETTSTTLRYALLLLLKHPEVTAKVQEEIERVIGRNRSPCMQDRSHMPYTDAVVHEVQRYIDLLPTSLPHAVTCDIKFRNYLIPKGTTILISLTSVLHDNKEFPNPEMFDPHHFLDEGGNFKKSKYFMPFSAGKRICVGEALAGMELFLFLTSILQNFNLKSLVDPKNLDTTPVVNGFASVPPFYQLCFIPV

Cytochrome P450 1A2 = target: T1, Cytochrome P450 1A2 (Homo sapiens, UniProt P05177);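 also: PubChem cytochrome P450 panel assay, CYP1A2 panel member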
T1 sequence (P05177 whole entry): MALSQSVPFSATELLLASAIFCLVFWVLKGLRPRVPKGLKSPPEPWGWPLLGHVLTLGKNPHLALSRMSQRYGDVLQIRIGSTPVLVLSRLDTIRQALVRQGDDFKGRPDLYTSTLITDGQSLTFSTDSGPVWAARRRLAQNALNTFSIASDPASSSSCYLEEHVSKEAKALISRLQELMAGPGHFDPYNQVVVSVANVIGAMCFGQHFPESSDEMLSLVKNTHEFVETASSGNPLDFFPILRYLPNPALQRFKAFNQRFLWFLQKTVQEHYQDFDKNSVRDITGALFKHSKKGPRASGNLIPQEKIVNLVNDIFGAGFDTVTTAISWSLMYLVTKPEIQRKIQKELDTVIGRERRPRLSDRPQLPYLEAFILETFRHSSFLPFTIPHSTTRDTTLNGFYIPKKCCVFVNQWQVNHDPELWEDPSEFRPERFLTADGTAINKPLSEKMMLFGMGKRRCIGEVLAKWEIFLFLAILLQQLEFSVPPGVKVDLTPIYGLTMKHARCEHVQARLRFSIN

[1] = target: T2, High affinity choline transporter 1 (Homo sapiens, UniProt Q9GZV3); experiment: human choline transporter blockers, potency – cell-based, 5-point CRC, membrane potential dye, dose response (AID 504840); assay type: functional
T2 sequence (Q9GZV3 whole entry): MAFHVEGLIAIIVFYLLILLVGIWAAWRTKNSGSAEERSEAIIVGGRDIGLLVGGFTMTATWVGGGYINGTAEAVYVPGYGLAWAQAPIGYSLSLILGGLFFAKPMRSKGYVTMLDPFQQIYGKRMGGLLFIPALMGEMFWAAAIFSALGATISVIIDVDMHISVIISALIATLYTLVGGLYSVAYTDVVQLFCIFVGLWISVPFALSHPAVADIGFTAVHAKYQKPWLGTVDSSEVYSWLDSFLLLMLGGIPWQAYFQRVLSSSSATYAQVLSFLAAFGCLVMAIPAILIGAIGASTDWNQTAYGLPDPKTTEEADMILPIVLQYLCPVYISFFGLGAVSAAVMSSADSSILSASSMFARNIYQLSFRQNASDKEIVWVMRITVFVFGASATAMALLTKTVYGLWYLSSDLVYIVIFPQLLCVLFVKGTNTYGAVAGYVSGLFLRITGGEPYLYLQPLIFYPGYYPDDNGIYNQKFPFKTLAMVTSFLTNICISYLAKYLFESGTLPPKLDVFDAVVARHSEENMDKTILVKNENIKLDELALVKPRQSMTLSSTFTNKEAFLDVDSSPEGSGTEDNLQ

[2] = target: T3, Polyadenylate-binding protein 1 (Homo sapiens, UniProt P11940); experiment: MLLE binding blockers, Cy5 peptide tracer – biochemical, fluorescence polarization, Cy5-PAM2 peptide, secondary, miRNA deadenylation inhibitor project, dose response (AID 602260); assay type: functional; settings: read-out: IC50_Mean
T3 sequence (P11940 whole entry, the tested form may be a part): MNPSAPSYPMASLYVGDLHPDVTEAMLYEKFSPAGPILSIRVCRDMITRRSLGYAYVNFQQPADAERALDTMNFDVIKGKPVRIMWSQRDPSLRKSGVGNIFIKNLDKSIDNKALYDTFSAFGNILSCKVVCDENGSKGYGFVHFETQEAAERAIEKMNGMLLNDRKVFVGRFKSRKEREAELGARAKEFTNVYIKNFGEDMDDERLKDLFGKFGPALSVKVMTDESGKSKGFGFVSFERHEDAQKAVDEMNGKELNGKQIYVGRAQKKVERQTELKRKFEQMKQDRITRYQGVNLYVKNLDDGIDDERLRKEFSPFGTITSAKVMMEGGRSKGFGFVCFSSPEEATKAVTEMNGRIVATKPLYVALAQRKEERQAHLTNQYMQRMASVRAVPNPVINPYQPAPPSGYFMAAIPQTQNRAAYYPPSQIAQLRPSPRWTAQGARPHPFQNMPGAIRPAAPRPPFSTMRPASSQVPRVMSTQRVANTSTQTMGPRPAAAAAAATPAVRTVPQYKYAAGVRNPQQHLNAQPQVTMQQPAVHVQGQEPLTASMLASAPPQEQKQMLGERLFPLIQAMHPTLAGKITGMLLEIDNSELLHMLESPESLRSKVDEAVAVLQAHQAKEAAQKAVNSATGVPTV

[3] = target: T3, Polyadenylate-binding protein 1; experiment: MLLE domain peptide-binding blockers, IC50 – biochemical, fluorescence polarization, FITC-PAM2 peptide, dose response (AID 602259); assay type: functional; settings: read-out: IC50_Mean
[4] = reduction of Shn3 3'UTR-driven luciferase in osteoblasts – cell-based, Clone20 osteoblasts, firefly luciferase, cherry-picked, dose response (AID 624132); assay type: functional;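 also: firefly luciferase luminescence from reporter carrying the Shn3 3'UTR in osteoblasts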
[5] = non-specific 3'UTR reporter inhibition in Clone20-Shn3RL – cell-based, Renilla luciferase, cherry-picked, counter-screen for Shn3 inhibitor project, dose response (AID 624133); assay type: functional
[6] = loss of viability in HepG2 cells – cell-based, CellTiter-Glo, cherry-picked, cytotoxicity control for Shn3 inhibitor project, dose response (AID 624134); assay type: functional
[7] = viability of PTEN-deleted HCT116 cells – cell-based, HCT116 PTEN knockout, dose response (AID 1047); assay type: functional;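 also: HCT116 colon tumor cells with PTEN knocked out; cells exposed to compound for 60 hours before readout; potency for loss of cell viability measured by luminescence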
[8] = viability of HCT116 lacking mutant beta-catenin – cell-based, human colon tumor, dose response (AID 1045); assay type: functional;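 also: HCT116 colon tumor cells with beta catenin knocked out; cells exposed to compound for 60 hours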
[9] = target: T4, Carboxy-terminal domain RNA polymerase II polypeptide A small phosphatase 1 (Homo sapiens, UniProt Q9GZU7); experiment: CTDSP1 inhibitors, concentration-response, biochemical, absorbance readout, ultra-high-throughput screen actives (AID 540297); assay type: functional
T4 sequence (Q9GZU7 whole entry): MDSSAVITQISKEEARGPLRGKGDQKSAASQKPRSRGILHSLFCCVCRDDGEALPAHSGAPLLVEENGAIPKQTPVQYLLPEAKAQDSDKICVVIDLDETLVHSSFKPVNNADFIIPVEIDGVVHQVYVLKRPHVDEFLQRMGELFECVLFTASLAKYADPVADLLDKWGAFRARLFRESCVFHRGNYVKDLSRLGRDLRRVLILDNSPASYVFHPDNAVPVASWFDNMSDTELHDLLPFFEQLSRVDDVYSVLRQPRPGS

[10] = P. falciparum Dd2 growth inhibitors, dose response, SYBR Green, cherry-picked samples (AID 1159567); assay type: functional, cell-based
[11] = microbe, parasite or virus in culture; assay type: functional; settings: Mycobacterium tuberculosis

Genome polyprotein, sequence (P29990 2492-3391 limits assumed): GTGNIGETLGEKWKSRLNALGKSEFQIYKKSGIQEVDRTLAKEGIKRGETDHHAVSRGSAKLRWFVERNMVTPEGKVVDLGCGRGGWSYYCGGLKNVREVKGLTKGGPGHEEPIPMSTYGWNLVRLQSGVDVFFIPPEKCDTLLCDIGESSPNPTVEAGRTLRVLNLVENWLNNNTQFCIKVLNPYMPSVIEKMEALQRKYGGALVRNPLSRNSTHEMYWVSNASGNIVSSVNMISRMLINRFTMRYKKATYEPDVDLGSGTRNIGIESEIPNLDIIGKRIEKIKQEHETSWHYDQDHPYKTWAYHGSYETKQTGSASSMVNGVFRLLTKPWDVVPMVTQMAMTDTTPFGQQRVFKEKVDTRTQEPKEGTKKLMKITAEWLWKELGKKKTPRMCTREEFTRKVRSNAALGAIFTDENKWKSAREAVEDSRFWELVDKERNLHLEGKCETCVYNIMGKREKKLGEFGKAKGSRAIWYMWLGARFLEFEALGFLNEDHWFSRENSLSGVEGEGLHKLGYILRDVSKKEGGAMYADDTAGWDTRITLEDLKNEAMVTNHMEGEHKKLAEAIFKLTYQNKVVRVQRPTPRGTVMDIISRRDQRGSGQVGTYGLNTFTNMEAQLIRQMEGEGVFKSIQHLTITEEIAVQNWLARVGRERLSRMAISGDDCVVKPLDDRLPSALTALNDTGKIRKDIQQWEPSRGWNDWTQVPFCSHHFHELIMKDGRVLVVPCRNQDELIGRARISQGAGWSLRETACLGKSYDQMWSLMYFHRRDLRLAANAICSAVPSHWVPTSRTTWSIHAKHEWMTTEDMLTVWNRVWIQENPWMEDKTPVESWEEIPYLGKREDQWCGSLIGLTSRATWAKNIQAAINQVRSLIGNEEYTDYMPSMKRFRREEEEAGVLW

## O=C(O)/C=C/C(=O)c1ccc(O)cc1
Genome polyprotein
  IC50: > 100 µM (active)

## COc1ccc(-n2c(C)c(C(C)=O)c3cc(OC(C)=O)ccc32)cc1
H9c2
  IC50: > 79 µM (inactive)
HEK293
  AC50: 4.43 µM (active)

## CCNc1ncc2nc(-c3ccccc3)c(=O)n(Cc3ccc(F)cc3)c2n1
Cytochrome P450 3A4
  AC50: 20 µM (inconclusive)
Cytochrome P450 2C9
  AC50: inconclusive
Cytochrome P450 1A2
  AC50: 3.16 µM (inconclusive)

## CC(=O)NC1=NC(=O)CS1
Cytochrome P450 2C9
  AC50: inconclusive
Cytochrome P450 1A2
  AC50: 0.2 µM (inconclusive)

## Cc1onc(-c2ccccc2Cl)c1C(=O)Nc1nnc(-c2cccc([N+](=O)[O-])c2)s1
[1]
  IC50: 19.1 µM (active)

## CC[C@]1(C(=O)OC)[C@H]2C(=O)N(Cc3ccccc3)C(=O)[C@H]2[C@H]2CN=C(SCc3ccc(Cl)cc3)N21
HEK293
  AC50: 3.31 µM (active)

## Oc1cc(CNC2CCCCC2)c(O)cc1CNC1CCCCC1
[2]
  IC50: > 66 µM (inactive)
Genome polyprotein
  IC50: 27.4 µM (active)
[3]
  IC50: 47.7 µM (inactive)

## COc1ccc(C(=O)N[C@H]2CCCCNC2=O)cc1OC1CCN(C(C)C)CC1
[1]
  IC50: 15.1 µM (active)

## O=C(c1ccoc1)N1CCN(c2cc(-c3cccc(F)c3)nc3cc(-c4cccc(Cl)c4)nn23)CC1
[4]
  AC50: 9.78 µM (active)
[5]
  AC50: 12.9 µM (active)
[6]
  AC50: > 70 µM (inactive)

## COc1ccc(Cl)cc1Nc1nc(-c2sc(NC(=O)c3ccccc3)nc2C)cs1
[7]
  EC50: 7.12 µM (active)
[8]
  EC50: 10.3 µM (active)

## C=CCn1cc(/C=N\NC(=O)c2cc3c(ccc4ccccc43)o2)c2ccccc21
Cytochrome P450 2C9
  AC50: inconclusive

## O=C(O)c1cccc2c1/C(=N/Nc1ccc([N+](=O)[O-])cc1[N+](=O)[O-])c1ccccc1-2
[9]
  IC50: 30.7 µM (active)
[1]
  IC50: 15.2 µM (active)

## COCC(=O)N1[C@H](CO)[C@@H](c2ccccc2)C12CN(Cc1cc(F)ccc1F)C2
[10]
  AC50: 18.1 µM (active)

## CN1C(=O)c2cc(NC(=O)c3cnccn3)ccc2OC[C@H]2O[C@@H](CC(=O)N[C@H]3CCN(Cc4ccccc4)C3)CC[C@H]21
[10]
  AC50: 6.41 µM (active)

## N#C[C@@H]1[C@H](c2ccccc2-c2ccc(F)cc2)[C@H](CO)N1C(=O)NC1CCCC1
[10]
  AC50: 5.12 µM (active)

## NCCSC[C@H](N)C(=O)O
Cytochrome P450 2C9
  AC50: inconclusive

## O=C1C(O)=C(C2CCC(c3ccc(Cl)cc3)CC2)C(=O)c2ccccc21 (stereo not drawn)
[11]
  CC50: 12.8 µM (active)
Cytochrome P450 1A2
  AC50: 10 µM (inconclusive)

— ChEMBL document CHEMBL1201862, “PubChem BioAssay data set” (2004)
